# In PMC11680018, “Study of Cytotoxicity of Spiro-Fused [3-Azabicyclo[3.1.0]hexane]oxindoles and Cyclopropa[a]pyrrolizidine-oxindoles Against Tumor Cell Lines” (Pharmaceuticals, 2024):
# Like-named read-outs stand apart in the source and are kept apart here.
# How the values were obtained:
# [1] = tested on: human erythroleukemia (K562) cell line; assay: MTS cell proliferation assay, K562; assay type: cell-based; settings: for IC50: Homo sapiens, MTS; for SI (selectivity index) K562: ratio of cytotoxicity PBMC / K562, calculated at 72 h
# Description: (§1) Cancer cell lines are valuable in vitro model systems that are widely used in cancer research and drug discovery. Their use is mainly linked to their possibility to provide for experimental purposes an unlimited source of biological material. Here, the 24 and 72 h in vitro MTS assay was used to determine the antiproliferative activity of synthesized spiro-fused cyclopropa[a]pyrrolizidine-2,3′-oxindoles and [3-azabicyclo[3.1.0]hexane]-oxindoles against human erythroleukemia (K562), acute T cell leukemia (Jurkat), cervical carcinoma (HeLa), melanoma (Sk-mel-2), breast cancer adenocarcinoma (MCF-7) as well as mouse colon carcinoma (CT26) cell lines. […] The full results of these investigations are presented in the Supporting Information Figures S1–S6. […] An evaluation of the cytotoxicity of the selected compounds towards normal cells (peripheral blood mononuclear cells) was performed additionally to understand their respective relative selectivities. The selectivity index was obtained using the ratio of measured cytotoxicity between the PBMC cells and each of the cancer cell lines, and the results are presented in Table 3.
# (§2) The human erythroleukemia (K-562), cervical carcinoma (HeLa) as well as mouse colon carcinoma (CT26) cell lines were obtained from the Bank of Cell Cultures of the Institute of Cytology of the Russian Academy of Sciences; the human melanoma (Sk-mel-2) cell line was obtained from the Bank of Cell Cultures of the Institute of Cytology and Genetics, Siberian Branch of the Russian Academy of Sciences. The acute T cell leukemia (Jurkat) cell line was obtained from the Bank of Cell Cultures of the Institute of Immunology of the Russian Academy of Medical Sciences. The peripheral blood mononuclear cells (PBMC) were isolated from the blood of healthy donors. K-562, Jurkat, MCF-7, PBMC and CT26 cells were grown on RPMI medium (Hyclone, GE Healthcare Life Sciences, Logan, UT, USA) supplemented with 10% (v/v) fetal bovine serum (Hyclone, GE Healthcare Life Sciences, Logan, UT, USA) and gentamicin (Sigma-Aldrich, St. Louis, MO, USA) at 37 °C in a humidified atmosphere with 5% CO2. HeLa and Sk-mel-2 cells were cultured with the same supplements and conditions in DMEM medium (Hyclone, GE Healthcare Life Sciences, Logan, UT, USA).
# (§3) To evaluate the in vitro toxicity of the compounds synthesized, cells were seeded into 96-well plates at a density of 5 × 10^3 cells per well. On the next day, the tested compounds were added to the wells at concentrations ranging from 1 to 30 μg/mL, followed by incubation for 1 and 3 days. Cell proliferation was determined by adding 20 μL of MTS reagent (BioVision, Milpitas, CA, USA) stock solution per well. The plates were incubated for 2 h at 37 °C in a humidified, 5% CO2 atmosphere. The plates were then read at 495 nm using a plate spectrophotometer (Multiskan GO, Thermo Fisher Scientific, Waltham, MA, USA). All samples were measured in triplicate.
# [2] = tested on: HeLa cells actin cytoskeleton; assay: Actin cytoskeleton staining, confocal microscopy, HeLa; assay type: cell-based, human; settings: 10 μg/mL, 24 h; for HeLa cells with filopodia-like deformations: control cells 93%, lowest value over the compounds; for HeLa cells with granular actin distributed diffusely in the cytoplasm (stress fibers disappeared): maximum over the compounds
# Description: It was found using confocal microscopy that incubation with spiro-fused [3-azabicyclo[3.1.0]hexane]oxindoles 4, 8, 17, 18, 22, 24 and cyclopropa[a]pyrrolizidine-2,3′-oxindole 2 led to significant changes in the HeLa cells’ actin cytoskeleton structure leading to the disappearance of stress fibers (granular actin was distributed diffusely in the cytoplasm in up to 38% of treated cells) and changes in the number of filopodia-like deformations (reduced from 93% in control cells to 64% after treatment). The impact on the Sk-mel-2 cells’ actin cytoskeleton structure was even greater: granular actin was distributed diffusely in the cytoplasm in up to 90% of treated cells while the number of filopodia-like deformations was reduced by up to 23%. Such changes in the cytoskeleton may indicate a change in the motor activity of cells, which may indicate a decrease in the ability of tumor cells to metastasize.
# HeLa cells were seeded at a density of 2 × 10^5 cells per dish onto a petri dish with cover slips and incubated for 24 h. After that, cells were treated with chosen compounds (10 μg/mL) for 24 h. The medium was removed and cells were fixed with 4% paraformaldehyde (Sigma-Aldrich, St. Louis, MO, USA), washed three times with PBS, and permeabilized with 0.3% Triton-X100 (Sigma-Aldrich, St. Louis, MO, USA). The cells were rinsed three times with PBS. Actin filaments (microfilaments) were stained with rhodamine–phalloidin (Invitrogen, Carlsbad, CA, USA) at 37 °C for 15 min. The samples were rinsed three times with PBS, followed by embedding in Fluoroshield medium (Sigma-Aldrich, St. Louis, MO, USA). Cells were imaged using an Axio Observer Z1 confocal microscope (Carl Zeiss MicroImaging GmbH, Jena, Germany). In each experiment, at least 30 cells were imaged. Images were analyzed by a pathologist blinded to the treatment mode used for each group using ImageJ software, 1.52v.
# [3] = tested on: cervical carcinoma (HeLa) cell line; assay: MTS cell proliferation assay, HeLa; assay type: cell-based, human; settings: for IC50: Homo sapiens, HeLa, MTS; for SI (selectivity index) HeLa: ratio of cytotoxicity PBMC / HeLa, calculated at 72 h
# Description: as §1, §2, §3
# [4] = tested on: mouse colon carcinoma (CT26) cell line; assay: MTS cell proliferation assay, CT26; assay type: cell-based; settings: for IC50: Mus musculus, MTS; for SI (selectivity index) CT26: ratio of cytotoxicity PBMC / CT26, calculated at 72 h
# Description: as §1, §2, §3
# [5] = tested on: melanoma (Sk-mel-2) cell line; assay: MTS cell proliferation assay, Sk-mel-2; assay type: cell-based, human; settings: for IC50: Homo sapiens, MTS; for SI (selectivity index) Sk-mel-2: ratio of cytotoxicity PBMC / Sk-mel-2, calculated at 72 h
# Description: as §1, §2, §3
# [6] = tested on: peripheral blood mononuclear cells (PBMC); assay: MTS cytotoxicity towards normal cells, PBMC; assay type: cell-based; settings: Homo sapiens
# Description: as §1, §2, §3
# [7] = tested on: acute T cell leukemia (Jurkat) cell line; assay: MTS cell proliferation assay, Jurkat; assay type: cell-based, human; settings: for IC50: Homo sapiens, Jurkat, MTS; for SI (selectivity index) Jurkat: ratio of cytotoxicity PBMC / Jurkat, calculated at 72 h
# Description: as §1, §2, §3
# [8] = tested on: breast cancer adenocarcinoma (MCF-7) cell line; assay: MTS cell proliferation assay, MCF-7; assay type: cell-based, human; settings: for IC50: Homo sapiens, MTS; for SI (selectivity index) MCF-7: ratio of cytotoxicity PBMC / MCF-7, calculated at 72 h
# Description: as §1, §2, §3
# [9] = read-out: IC50 K562 24 h, K562, 24 h
# [10] = K562, 72 h, read-out: IC50 K562 72 h
# [11] = read-out: IC50 CT26 24 h, CT26, 24 h
# [12] = CT26, 72 h, read-out: IC50 CT26 72 h
# [13] = read-out: IC50 Sk-mel-2 24 h, Sk-mel-2, 24 h
# [14] = Sk-mel-2, 72 h, read-out: IC50 Sk-mel-2 72 h
# [15] = read-out: IC50 Jurkat 24 h, 24 h
# [16] = 72 h, read-out: IC50 Jurkat 72 h
# [17] = MCF7, read-out: IC50 MCF-7 24 h, MCF-7, 24 h
# [18] = MCF7, MCF-7, 72 h, read-out: IC50 MCF-7 72 h
SMILES,"IC50 [1, 9]","IC50 [1, 10]","IC50 ([3]; read-out: IC50 HeLa 24 h, 24 h)","IC50 ([3]; 72 h, read-out: IC50 HeLa 72 h)","IC50 [4, 11]","IC50 [4, 12]","IC50 [5, 13]","IC50 [5, 14]","IC50 [7, 15]","IC50 [7, 16]","IC50 [8, 17]",SI (selectivity index) K562 [1],HeLa cells with filopodia-like deformations [2],HeLa cells with granular actin distributed diffusely in the cytoplasm (stress fibers disappeared) [2],SI (selectivity index) HeLa [3],SI (selectivity index) CT26 [4],SI (selectivity index) Sk-mel-2 [5],"IC50 ([6]; 72 h, read-out: IC50 PBMC 72 h)","IC50 ([6]; read-out: IC50 PBMC 24 h, 24 h)",SI (selectivity index) Jurkat [7],other results
O=C1Nc2ccc([N+](=O)[O-])cc2C12N1CCCC1C1(c3ccccc3)C(c3ccccc3)C12c1ccccc1 (stereo not drawn) [Compound 2],29 ± 2 µM,8 ± 1 µM,> 40 µM,12 ± 1 µM,> 40 µM,23 ± 2 µM,14 ± 1 µM,12 ± 1 µM,18 ± 2 µM,4 ± 1 µM,> 40 µM,11,≥ 64%,up to 38%,7,4,7,84 ± 8 µM,121 ± 8 µM,22,"IC50 [8, 18]: > 40 µM; SI (selectivity index) MCF-7 [8]: 2"
CC[C@H](C)C1NC2(C(=O)Nc3ccccc32)C2(c3ccccc3)C(C(=O)OC)C12c1ccccc1 (stereo partly drawn) [Compound 4],32 ± 2 µM,6 ± 1 µM,> 40 µM,9 ± 1 µM,> 40 µM,21 ± 2 µM,> 40 µM,9 ± 1 µM,11 ± 1 µM,4 ± 1 µM,> 40 µM,14,≥ 64%,up to 38%,11,4,11,92 ± 9 µM,174 ± 17 µM,22,"IC50 [8, 18]: > 40 µM; SI (selectivity index) MCF-7 [8]: 2"
CC(C)C1NC2(C(=O)Nc3ccccc32)C2(c3ccccc3)C(c3ccccc3)C12c1ccccc1 (stereo not drawn) [Compound 8],25 ± 1 µM,6 ± 1 µM,> 40 µM,8 ± 1 µM,> 40 µM,11 ± 1 µM,15 ± 1 µM,8 ± 1 µM,11 ± 1 µM,2 ± 1 µM,> 40 µM,7,≥ 64%,up to 38%,6,4,6,47 ± 5 µM,83 ± 7 µM,22,"IC50 [8, 18]: > 40 µM; SI (selectivity index) MCF-7 [8]: 1"
COC(=O)C1C2(c3ccccc3)C(Cc3ccc(O)cc3)NC3(C(=O)Nc4ccccc43)C12c1ccccc1 (stereo not drawn) [Compound 17],35 ± 5 µM,14 ± 1 µM,31 ± 2 µM,14 ± 2 µM,> 40 µM,23 ± 2 µM,> 40 µM,14 ± 2 µM,12 ± 1 µM,8 ± 1 µM,> 40 µM,8,≥ 64%,up to 38%,8,5,8,112 ± 9 µM,127 ± 16 µM,15,"IC50 [8, 18]: > 40 µM; SI (selectivity index) MCF-7 [8]: 2"

# Now from value to compound, other results behind:
"IC50 [1, 9]","IC50 [1, 10]","IC50 ([3]; read-out: IC50 HeLa 24 h, 24 h)","IC50 ([3]; 72 h, read-out: IC50 HeLa 72 h)","IC50 [4, 11]","IC50 [4, 12]","IC50 [5, 13]","IC50 [5, 14]","IC50 [7, 15]","IC50 [7, 16]","IC50 [8, 17]",SMILES,SI (selectivity index) K562 [1],HeLa cells with filopodia-like deformations [2],HeLa cells with granular actin distributed diffusely in the cytoplasm (stress fibers disappeared) [2],SI (selectivity index) HeLa [3],SI (selectivity index) CT26 [4],SI (selectivity index) Sk-mel-2 [5],"IC50 ([6]; 72 h, read-out: IC50 PBMC 72 h)","IC50 ([6]; read-out: IC50 PBMC 24 h, 24 h)",SI (selectivity index) Jurkat [7],other results
14 ± 2 µM,6 ± 1 µM,23 ± 2 µM,10 ± 2 µM,27 ± 2 µM,10 ± 1 µM,29 ± 2 µM,10 ± 1 µM,6 ± 1 µM,2 ± 1 µM,> 40 µM,NC(=O)CC1NC2(C(=O)Nc3ccccc32)C2(c3ccccc3)C(c3ccccc3)C12c1ccccc1 (stereo not drawn) [Compound 18],2,≥ 64%,up to 38%,1,1,1,12 ± 1 µM,29 ± 3 µM,6,"IC50 [8, 18]: 14 ± 1 µM; SI (selectivity index) MCF-7 [8]: 1"
> 40 µM,10 ± 1 µM,20 ± 2 µM,8 ± 1 µM,> 40 µM,> 40 µM,> 40 µM,8 ± 1 µM,22 ± 2 µM,4 ± 1 µM,> 40 µM,CSCCC1NC2(C(=O)Nc3ccccc32)C2(c3ccccc3)C(c3ccccc3)C12c1ccccc1 (stereo not drawn) [Compound 24],9,≥ 64%,up to 38%,12,1,12,92 ± 11 µM,113 ± 14 µM,23,"IC50 [8, 18]: > 40 µM; SI (selectivity index) MCF-7 [8]: 1"
